According to patent US7709443B2, “Cyclic peptide antitumor agents” (Northwestern University, priority 2003, dated 2010):
In brackets after ≈: the same amount, converted by molar mass. Where two headings read alike, the source gives them in different places. Square brackets hold non-standard residues; d marks the D form. Peptide text beside a SMILES is read from it. Hica(2S) = CC(C)C[C@H](O)C(=O)O

Tests used:
[1] = tested on: National Cancer Institute's 60 cell-line panel; conditions: mean over panel; cited from earlier work
[2] = tested on: HCT-116 (human colon carcinoma); conditions: as found for the natural product; cited from earlier work
[3] = tested on: HCT-116 (human colon carcinoma); experiment: cells; conditions: HCT-116 bioassay, Table 1
Description: The HCT-116 human colon adenocarcinoma screen is a tissue culture first line assay to detect inherent cytotoxicity against malignant cancer cells. This strain is considered to be an “indicator strain” by many for the selection of inhibitors that target solid tumors. The assay is a calorimetric endpoint assay which can be produced in 96-well format trays. Data are acquired by plate reader and dose response curves are produced by computer analysis. […] This assay is run routinely as described below and would be understood in the art.
1. Media (1000 mL McCoy's 5A Medium, 114 mL Fetal Bovine Serum, 25 mL Hepes buffer solution (IM), 12.5 mL Penicillin-Streptomycin solution)
2. Cell line (HCT-116, human colon cancer cell line)
3. Indicator (MTS and PMS in DPBS)
5. Standard anticancer drug (etoposide (VP-16); stock is 4 mg/mL in DMSO
6. DPBS (without CaCl2 and MgCl2)
1. Remove medium from the cells and rinse with 10 mL sterile DPBS.
3. Allow to stand in hood for 1 minute.
4. Remove trypsin with sterile pipette.
5. Allow flask to stand in hood for 2-5 minutes.
6. Add 10 mL of media to flask and pipette up and down to gently break up cell clumps.
7. Count the number of cells using a hemacytometer.
8. Determine # of plates needed, and total volume of cell suspension (16 or 18 mL per plate).
9. Dilute cells to a final concentration of 2.5×10^4 cells/mL in a sterile flask.
10. Pour cell suspension into a sterile trough.
For Serial Dilution Plates
1. Add 175 μL to each well in the first row of a 96 well plate.
2. Add 150 μL to the rest of the wells in A1-A10 & A12.
3. In row 11 add 150 μL cell suspension to the first 6 wells and only media to the last two.
For Single Concentration Plates
1. Add 150 μL of sterile media to G11 & H11.
2. Add 150 μL of cell suspension to all other wells.
3. Add 25 μL more to well H1.
Incubate plates overnight at 37° C. & 5% CO2
1. Add 25 μL of test compounds @ 10 mg/mL to A1-A10, 25 μL of DMSO to A11 & 25 μL of etoposide (4 mg/mL) to A12.
2. Using a twelve channel pipette, mix well then remove 50 μL from the first row and transfer to the next row, repeat down the plate until row F, then remove tip # 11 and continue down plate discarding the last 50 μL.
3. Incubate plates for 72 h.
1. Add 20 μL of MTS/PMS solution to each well.
3. Read plates @490 nm on plate reader.

[4] = tested on: PC-3 (Prostate) human cancer cell line; conditions: three days
Description: (§1) Cells were plated at 5,000 cells per well in 24-well plates, treated for three days, then counted. Cell number was normalized to the number of cells in untreated control (DMSO) cells, also after three days.

[5] = tested on: WM115 (Melanoma) human cancer cell line; conditions: three days
Description: as §1

topoisomerase I = conditions: mechanism study in molluscum contagiosum virus; cited from earlier work
[6] = tested on: MDA-MB231 (Breast) human cancer cell line; conditions: three days
Description: as §1

## CC(C)C[C@@H]1NC(=O)[C@H](C(C)C)NC(=O)[C@H](CC(C)C)OC(=O)[C@H](CC(C)C)NC(=O)[C@H](Cc2ccccc2)NC1=O [Sansalvamide A, reference compound] (cyclo(FL[Hica(2S)]VL))
[1]
  mean IC50 against NCI 60 cell-line panel: 27.4 µg/mL
[2]
  in vitro value toward HCT-116 colon carcinoma: 9.8 µg/mL
[3]
  IC50: 9.8 µg/mL (≈ 16.7 µM)
[4]; PC-3, 1 μM
  Fold Induction Over DMSO control: 0.95
[4]; PC-3, 10 μM
  Fold Induction Over DMSO control: 0.22
[5]; WM115, 1 μM
  Fold Induction Over DMSO control: 0.98
[5]; WM115, 10 μM
  Fold Induction Over DMSO control: 0.02
Topoisomerase I
  inhibition of topoisomerase I: inhibitor of topoisomerase I
[6]; MDA-MB231, 1 μM
  Fold Induction Over DMSO control: 0.90
[6]; MDA-MB231, 10 μM
  Fold Induction Over DMSO control: 0.09
